Measured values published in patent US12419307B2, “Mixtures comprising indazole pesticides” (FMC Corporation, priority 2019, dated 2025).
Read-outs that look alike come from different tables or passages of the source.

Tests used:
Type in all cases: in vivo
[1] = tested on: Western Flower Thrips (Frankliniella occidentalis Pergande); test: Test B: Western Flower Thrips control on bean plants, plant damage rating converted to % plant protection after 7 days; conditions: for pest or weed control at 2.93 ppm / pest or weed control at 16.1 ppm / pest or weed control at 11.1 ppm / pest or weed control at 36.8 ppm: Frankliniella occidentalis, 168 h, read-out: Plant Protection (obs); for Plant Damage (obs): Table 3a; for Plant Damage (obs) / Plant Protection (obs): applied alone
Procedure, shortened: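 Sprayed 5- to 7-day-old bean (var. Soleil) plants, 3 replicates, dried 1 h, then infested with 22 to 27 adult thrips and held 7 days at 25° C, 45-55% RH. Feeding damage rated 0-10 and converted as 100−(rating×10) to % plant protection.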

[2] = tested on: corn planthopper (Peregrinus maidis (Ashmead)); test: Test C: corn planthopper control on corn plants, insect mortality after 6 days; conditions: Peregrinus maidis, read-out: % Mortality (obs)
Protocol: (§1) The pest control protection afforded by the mixtures or compositions is not limited, however, to these species. The analysis of enhanced activity between the mixtures or compositions was determined using Colby's equation. The average % mortality data for the test compounds alone were inserted into the Colby's equation. If the observed (obs) average % mortality was higher than “p”, the expected (exp) % mortality, the mixture or composition had enhanced effects. If the observed average % mortality was equal to or lower than the expected mortality, the mixture or composition either had no enhanced effect. For bioassays where insect feeding damage was evaluated, enhanced activity is identified when the observed plant damage is less than the expected plant damage rating; ratings ranged between 0 (no damage) and 10 (dead plant) and each value was converted to a % plant protection. 100−(Obs Plant Damage*10)
For evaluating control of corn planthopper (Peregrinus maidis (Ashmead)) through contact and/or systemic means, the test unit consisted of a small open container with a 3-4-day-old corn (maize) plant inside. White sand was added to the top of the soil prior to application of the test compound.
Test compounds were formulated and sprayed at 250 and/or 50 ppm and/or 10 ppm. After spraying of the formulated test compound, the test units were allowed to dry for 1 h before they were post-infested with ˜15-20 nymphs (18-to-21-day-old). […]

[3] = tested on: cotton melon aphid (Aphis gossypii Glover); test: Test D: cotton melon aphid control on okra plants, insect mortality after 6 days; conditions: Aphis gossypii, read-out: % Mortality (obs)
Procedure, shortened: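 Okra plants (6–7 days old) pre-infested with 30–40 aphids by cut-leaf transfer were sprayed, three replicates, then held 6 days at 19-21° C and 50-70% RH before mortality scoring. Mixture enhancement was judged against Colby-expected % mortality.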

[4] = tested on: fall armyworm (Spodoptera frugiperda (J. E. Smith)); test: Test E: fall armyworm control on corn plants, plant damage rating and mortality after 6 days; conditions: Spodoptera frugiperda, 144 h, read-out: Plant Protection (obs)
Protocol: as §1
For evaluating control of fall armyworm (Spodoptera frugiperda (J. E. Smith)) the test unit consisted of a small open container with a 4-5-day-old corn (maize) plant inside. This was pre-infested with 10-15 1-day-old larvae on a piece of insect diet. Test compounds were formulated and sprayed with 3 replications as described for Test A. After spraying of the formulated test compound, the test units were maintained in a growth chamber for 6 days at 25° C. and 70% relative humidity. Plant feeding damage was then visually assessed based on foliage consumed, and larvae were assessed for mortality. Each test unit was then visually assessed for plant damage and rated 0-10, where 0=undamaged and 10=plant is dead; the results are listed in Tables 6d-i.

CC(C)(CS(C)(=O)=O)NC(=O)c1ccc(F)c2nn(-c3cccnc3)cc12 [Cpd 3, N-[1,1-dimethyl-2-(methylsulfonyl)ethyl]-7-fluoro-2-(3-pyridinyl)-2H-indazole-4-carboxamide]
pest or weed control at 2.93 ppm ([1]; Table 3e, 2.93 ppm): 83.3% | pest or weed control at 16.1 ppm ([1]; Table 3e, 16.1 ppm): 80% | pest or weed control at 2.93 ppm ([1]; Table 3f, 2.93 ppm): 40% | pest or weed control at 16.1 ppm ([1]; Table 3f, 16.1 ppm): 86.7% | pest or weed control at 2.93 ppm ([1]; Table 3g, 2.93 ppm): 43.3% | pest or weed control at 16.1 ppm ([1]; Table 3g, 16.1 ppm): 70% | Plant Damage (obs) ([1]; 2.93 ppm): 13.3% | Plant Damage (obs) ([1]; 16.1 ppm): 83.3% | Plant Protection (obs) ([1]; Table 3b, 2.93 ppm): 40.0% | Plant Protection (obs) ([1]; Table 3b, 16.1 ppm): 76.7% | Plant Protection (obs) ([1]; Table 3c, 2.93 ppm): 33.3% | Plant Protection (obs) ([1]; Table 3c, 16.1 ppm): 80.0% | mortality at 50 ppm ([2]; 96 h, Table 4d): 8.3% | mortality at 250 ppm ([2]; 96 h, Table 4d): 0% | mortality at 50 ppm ([2]; Table 4e): 5% | mortality at 250 ppm ([2]; Table 4e): 1.2% | mortality at 0.02 ppm ([3]; 5 h, Table 5h): 37.4% | mortality at 0.08 ppm ([3]; 5 h, Table 5h): 43.5% | mortality at 0.02 ppm ([3]; 120 h, Table 5d): 20% | mortality at 0.08 ppm ([3]; 120 h, Table 5d): 43.2% | mortality at 0.02 ppm ([3]; Table 5a): 20% | mortality at 0.08 ppm ([3]; Table 5a): 43.2% | mortality at 0.02 ppm ([3]; Table 5b): 20% | mortality at 0.08 ppm ([3]; Table 5b): 43.2% | mortality at 0.02 ppm ([3]; Table 5c): 0% | mortality at 0.08 ppm ([3]; Table 5c): 20% | mortality at 0.02 ppm ([3]; Table 5e): 19.9% | mortality at 0.08 ppm ([3]; Table 5e): 31.1% | mortality at 0.02 ppm ([3]; Table 5f): 17.6% | mortality at 0.08 ppm ([3]; Table 5f): 39% | mortality at 0.02 ppm ([3]; Table 5g): 15.8% | mortality at 0.08 ppm ([3]; Table 5g): 30.6% | pest or weed control at 50 ppm ([4]; Table 6e): 0% | pest or weed control at 250 ppm ([4]; Table 6e): 0%

CC1(NC(=O)c2cccc3nn(-c4cccnc4)cc23)CC1 [Cpd 4, N-(1-methylcyclopropyl)-2-(3-pyridinyl)-2H-indazole-4-carboxamide]
pest or weed control at 11.1 ppm ([1]; Table 3e, 11.1 ppm): 60% | pest or weed control at 36.8 ppm ([1]; Table 3e, 36.8 ppm): 76.7% | pest or weed control at 11.1 ppm ([1]; Table 3f, 11.1 ppm): 73.3% | pest or weed control at 36.8 ppm ([1]; Table 3f, 36.8 ppm): 90% | pest or weed control at 11.1 ppm ([1]; Table 3g, 11.1 ppm): 20% | pest or weed control at 36.8 ppm ([1]; Table 3g, 36.8 ppm): 73.3% | pest or weed control at 2.93 ppm ([1]; Table 3d, 2.93 ppm): 50% | pest or weed control at 11.1 ppm ([1]; Table 3d, 11.1 ppm): 60% | pest or weed control at 16.1 ppm ([1]; Table 3d, 16.1 ppm): 86.7% | pest or weed control at 36.8 ppm ([1]; Table 3d, 36.8 ppm): 93.3% | Plant Damage (obs) ([1]; 11.1 ppm): 43.3% | Plant Damage (obs) ([1]; 36.8 ppm): 86.7% | Plant Protection (obs) ([1]; Table 3b, 11.1 ppm): 40.0% | Plant Protection (obs) ([1]; Table 3b, 36.8 ppm): 86.7% | Plant Protection (obs) ([1]; Table 3c, 11.1 ppm): 36.7% | Plant Protection (obs) ([1]; Table 3c, 36.8 ppm): 70.0% | mortality at 50 ppm ([2]; 96 h, Table 4d): 0% | mortality at 250 ppm ([2]; 96 h, Table 4d): 9.1% | mortality at 50 ppm ([2]; Table 4e): 38.9% | mortality at 250 ppm ([2]; Table 4e): 34.8% | mortality at 50 ppm ([2]; Table 4f): 1.8% | mortality at 250 ppm ([2]; Table 4f): 10.8% | mortality at 50 ppm ([2]; Table 4g): 1.8% | mortality at 250 ppm ([2]; Table 4g): 10.8% | mortality at 0.2 ppm ([3]; 5 h, Table 5h): 44.6% | mortality at 0.5 ppm ([3]; 5 h, Table 5h): 68.7% | mortality at 0.2 ppm ([3]; 120 h, Table 5d): 48.3% | mortality at 0.5 ppm ([3]; 120 h, Table 5d): 58.9% | mortality at 0.2 ppm ([3]; Table 5a): 48.3% | mortality at 0.5 ppm ([3]; Table 5a): 58.9% | mortality at 0.2 ppm ([3]; Table 5b): 48.3% | mortality at 0.5 ppm ([3]; Table 5b): 58.9% | mortality at 0.2 ppm ([3]; Table 5c): 6.7% | mortality at 0.5 ppm ([3]; Table 5c): 6.7% | mortality at 0.2 ppm ([3]; Table 5e): 30.8% | mortality at 0.5 ppm ([3]; Table 5e): 69.7% | mortality at 0.2 ppm ([3]; Table 5f): 40.7% | mortality at 0.5 ppm ([3]; Table 5f): 73.4% | mortality at 0.2 ppm ([3]; Table 5g): 21% | mortality at 0.5 ppm ([3]; Table 5g): 45.1% | mortality at 0.2 ppm ([3]; Table 5i): 33.5% | mortality at 0.5 ppm ([3]; Table 5i): 80.3% | mortality at 0.2 ppm ([3]; Table 5j): 33.5% | mortality at 0.5 ppm ([3]; Table 5j): 80.3% | mortality at 0.2 ppm ([3]; Table 5k): 40.2% | mortality at 0.5 ppm ([3]; Table 5k): 69.3% | mortality at 0.2 ppm ([3]; Table 5l): 40.2% | mortality at 0.5 ppm ([3]; Table 5l): 69.3% | mortality at 0.2 ppm ([3]; Table 5m): 42.5% | mortality at 0.5 ppm ([3]; Table 5m): 65% | mortality at 0.2 ppm ([3]; Table 5n): 57.1% | mortality at 0.5 ppm ([3]; Table 5n): 73.9% | pest or weed control at 50 ppm ([4]; Table 6e): 0% | pest or weed control at 250 ppm ([4]; Table 6e): 0% | pest or weed control at 50 ppm ([4]; Table 6f): 0% | pest or weed control at 250 ppm ([4]; Table 6f): 0% | pest or weed control at 50 ppm ([4]; Table 6g): 0% | pest or weed control at 250 ppm ([4]; Table 6g): 20% | pest or weed control at 50 ppm ([4]; Table 6i): 0% | pest or weed control at 250 ppm ([4]; Table 6i): 0% | pest or weed control at 50 ppm ([4]; Table 6h): 0% | pest or weed control at 250 ppm ([4]; Table 6h): 20% | pest or weed control at 50 ppm ([4]; Table 6d): 0% | pest or weed control at 250 ppm ([4]; Table 6d): 0%
